These results are taken from publication doi:10.1101/2025.02.03.636334v1 (biorxiv, 2025).

Converted amounts (≈) assume the structure as drawn. A value given as a limit tells only on which side of the number the result lay.

In assay [1] the target is T1, KasA (Mycobacterium tuberculosis, UniProt P9WQD9).
T1 sequence (P9WQD9 1-416): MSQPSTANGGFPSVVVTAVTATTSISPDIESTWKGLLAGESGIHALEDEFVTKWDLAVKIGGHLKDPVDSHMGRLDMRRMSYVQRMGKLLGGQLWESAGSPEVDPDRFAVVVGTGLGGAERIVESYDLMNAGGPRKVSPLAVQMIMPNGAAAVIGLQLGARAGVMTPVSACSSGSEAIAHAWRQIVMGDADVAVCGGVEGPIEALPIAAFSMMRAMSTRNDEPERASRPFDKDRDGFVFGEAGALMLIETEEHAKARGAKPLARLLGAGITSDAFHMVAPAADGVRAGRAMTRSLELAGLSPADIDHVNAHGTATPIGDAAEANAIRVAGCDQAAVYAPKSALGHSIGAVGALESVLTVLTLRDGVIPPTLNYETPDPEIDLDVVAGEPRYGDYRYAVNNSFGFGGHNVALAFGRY
Description: KasA-MabA coupled assay, NADPH at […] nm. The class given is biochemical. The settings on record: read-out: % inhibition at 25 μM.

Assay [2] has as its target T1, KasA. Description: microscale thermophoresis, RED-NHS labelled KasA. The class given is binding. (MST reads how a fluorescent partner responds to local heating, with and without ligand.)
A further assay concerns M. tuberculosis H37Rv. Description: microbe, parasite or virus in culture. The settings on record: Mycobacterium tuberculosis, 192 h, read-out: Mtb MIC (µM).
Assay [3] addresses T1, KasA. Description: biochemical. The settings on record: read-out: % KasA Inhibition at 25 µM Compound.
In assay [4] the target is T2, MabA (Mycobacterium tuberculosis, UniProt P9WGT3). The experiment in a line: biochemical. The settings on record: read-out: % of control remaining.
For assay [5], the target named is T2, MabA. Description: MabA NADPH oxidation at […] nm. The assay is classed as biochemical.

T2 sequence (P9WGT3 whole entry): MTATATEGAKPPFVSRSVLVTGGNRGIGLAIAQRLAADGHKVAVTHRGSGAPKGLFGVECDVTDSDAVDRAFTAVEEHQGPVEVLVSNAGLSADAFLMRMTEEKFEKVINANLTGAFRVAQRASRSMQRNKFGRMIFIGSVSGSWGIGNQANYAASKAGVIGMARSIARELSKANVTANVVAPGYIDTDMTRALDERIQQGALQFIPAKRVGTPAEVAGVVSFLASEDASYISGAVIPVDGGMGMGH

As a reminder, the inhibition is the drop in the measured response relative to a control, in per cent. The term Kd denotes the concentration at which binding is half-saturated. Lower therefore signals tighter binding. Consider `O=C(Nc1nc(-c2ccccn2)cs1)c1cc(-c2ccccc2)nc2ccc(Br)cc12` [JSF-5071, 6-bromo-2-phenyl-N-(4-(pyridin-2-yl)thiazol-2-yl)quinoline-4-carboxamide], for which, at KasA [1], the inhibition at 25 µM was 12.7 ± 4.8%. Further, at KasA [2], the affinity, expressed as Kd, was 4.78 ± 1.3 µM. With `O=C(Nc1nc(-c2ccccn2)cs1)c1cc(-c2ccccc2)nc2ccc(Br)cc12` [Z29466477], the MIC in the assay on M. tuberculosis H37Rv worked out at 0.12 µM (≈ 0.0585 µg/mL). Further, the inhibition at 25 µM at KasA [3] turned out to be 15.3 ± 12.8%. Besides, the remaining activity at 25 µM at MabA [4] came out at 92.1 ± 16.2%. In the case of `O=C(Nc1ccc(S(=O)(=O)Nc2cccc(C(F)(F)F)c2)cc1)c1cc2ccccc2oc1=O` [Z31753778], in the assay with M. tuberculosis H37Rv, the MIC amounted to 0.78 µM (≈ 0.381 µg/mL). Also, the inhibition at 25 µM on KasA [3] was 12 ± 8.8%. For the same compound, the remaining activity at 25 µM on MabA [4] came out at 97.9 ± 14.6%.

With `O=C(C1=C2SC=C(c3ccccc3)N2CCCC1)c1cc(-c2ccccc2Cl)nc2ccccc12` [Z56802551], in the assay on M. tuberculosis H37Rv, the MIC stood at 12 µM (≈ 5.94 µg/mL). Further, at KasA [3], the inhibition at 25 µM was 15.6 ± 11.1%. Besides, the remaining activity at 25 µM at MabA [4] worked out at 104 ± 22.4%. In the case of `Cc1ccc(-c2cc(C(=O)N3CCC(C(=O)Nc4ccc5c(c4)OCO5)CC3)c3ccccc3n2)cc1` [Z99494139], the MIC with M. tuberculosis H37Rv came out at 1.5 µM (≈ 0.74 µg/mL). Moreover, the inhibition at 25 µM at KasA [3] was 11.5 ± 7%. Also, the remaining activity at 25 µM on MabA [4] stood at 101 ± 20.4%.

Regarding `O=C(Nc1ccc2c(c1)OCO2)C1CCN(C(=O)c2cc(-c3ccc(F)cc3)nc3ccccc23)CC1` [Z99494149], the MIC in the assay on M. tuberculosis H37Rv was 3.1 µM (≈ 1.54 µg/mL). In addition, the inhibition at 25 µM on KasA [3] turned out to be 12 ± 8.8%. The remaining activity at 25 µM on MabA [4] worked out at 95.5 ± 15%. Turning to `O=C(NN1C(=O)NC(c2ccccc2)(c2ccccc2)C1=O)c1ccc(-c2ccccc2F)o1` [Z137249014], the MIC in the assay on M. tuberculosis H37Rv came to 100 µM (≈ 45.5 µg/mL). Consider `O=C(CCc1nc2c(cnn2-c2ccccc2)c(=O)[nH]1)N1CCCC1c1ccc2c(c1)OCCCO2` (centres unmarked) [Z140090268], for which the MIC in the assay on M. tuberculosis H37Rv amounted to 100 µM (≈ 48.6 µg/mL). For `NC(=O)C1Cc2ccccc2CN1C(=O)CCc1c(-c2ccc(F)cc2)[nH]c2ccccc12` (centres unmarked) [Z143202488], the MIC in the assay with M. tuberculosis H37Rv stood at 100 µM (≈ 44.2 µg/mL). Turning to `O=c1[nH]c(SCc2cn(-c3ccccc3)nc2-c2ccccc2)nc2c1cnn2-c1ccccc1` [Z150144208], the MIC in the assay on M. tuberculosis H37Rv was determined as 3.1 µM (≈ 1.48 µg/mL).

For `O=C(c1cc(-c2ccc(F)cc2)nc2ccccc12)N1CCC(NS(=O)(=O)c2cccs2)CC1` [Z212116604], the MIC in the assay on M. tuberculosis H37Rv came out at 12 µM (≈ 5.95 µg/mL). Moreover, the inhibition at 25 µM at KasA [3] came out at 14.7 ± 9.6%. In addition, on MabA [4], the remaining activity at 25 µM worked out at 99.4 ± 15%.

With `O=C(c1nn(-c2ccccc2)c(=O)c2ccccc12)N1CCCN(Cc2ccc(Cl)cc2)CC1` [Z212593638], in the assay with M. tuberculosis H37Rv, the MIC turned out to be 50 µM (≈ 23.6 µg/mL). On the same count and under the same terms, next, `O=C(Cn1c2ccccc2c(=O)c2ccccc21)NC(c1ccccc1)c1cc2ccccc2o1` (centres unmarked) [Z229616646]: 100 µM (≈ 45.9 µg/mL); `c1cncc(-c2nc(N3CCN(Cc4ccc5ccccc5c4)CC3)c3ccccc3n2)c1` [Z237483836]: 100 µM (≈ 43.2 µg/mL). The same measure, in the same setting: next, `O=C(CCc1ccc(-c2ccccc2)o1)N1CCN(c2ccnc3cc(Cl)ccc23)CC1` [Z285125220]: 100 µM (≈ 44.6 µg/mL); `Cc1ccc(-c2ccsc2C(=O)NNS(=O)(=O)c2ccc3oc(=O)ccc3c2)cc1` [Z299677296]: 100 µM (≈ 44.1 µg/mL). Regarding `O=C(CN1CCN(C(=O)c2cccc3ccccc23)CC1)Nc1ccccc1Cc1ccccc1` [Z316384350], in the assay on M. tuberculosis H37Rv, the MIC was 25 µM (≈ 11.6 µg/mL). Turning to `O=C(Nc1nc(-c2cccc(C(F)(F)F)c2)cs1)C1CCN(C(=O)c2ccc(F)cc2)CC1` [Z318114792], the MIC with M. tuberculosis H37Rv was 12 µM (≈ 5.73 µg/mL). The inhibition at 25 µM on KasA [3] is 4.72 ± 3%. Besides, the remaining activity at 25 µM on MabA [4] worked out at 102 ± 16.8%. Take `Nc1nn(C(=O)c2cc(S(=O)(=O)Nc3cccc(C(F)(F)F)c3)ccc2Cl)c2ccccc12` [Z381337772]: the MIC in the assay with M. tuberculosis H37Rv came to 100 µM (≈ 49.5 µg/mL). For `O=C(c1ccccc1)C1CCN(C2c3ccccc3-c3ccccc32)CC1` [Z646019388], in the assay on M. tuberculosis H37Rv, the MIC came to 100 µM (≈ 35.3 µg/mL). For `O=C(Nc1ccc(O)cc1)C1CCN(C(=O)c2cccc(Oc3cccc(C(F)(F)F)c3)c2)CC1` [Z979305278], in the assay with M. tuberculosis H37Rv, the MIC is 12 µM (≈ 5.81 µg/mL). The inhibition at 25 µM at KasA [3] worked out at 31.2 ± 9.3%. For the same compound, the remaining activity at 25 µM on MabA [4] turned out to be 97.8 ± 16.3%. What is called IC50 is the midpoint of a concentration-inhibition curve. Compound `C(=N\Nc1nc(-c2ccccc2)c2ccccc2n1)/c1cccc2cccnc12` [Z1033301210] came in with an IC50 against MabA [5] greater than 100 µM. For the same compound, the MIC in the assay on M. tuberculosis H37Rv amounted to 12 µM (≈ 4.51 µg/mL). Also, at KasA [3], the inhibition at 25 µM is 46.7 ± 12.5%. Also, the remaining activity at 25 µM at MabA [4] worked out at 68.4 ± 16.8%. In the case of `O=C(NCc1ccccc1)c1ccc(Oc2nc(-c3ccccc3)cc(-c3ccccc3)n2)cc1` [Z1037335532], the MIC in the assay with M. tuberculosis H37Rv is 100 µM (≈ 45.8 µg/mL).

Take `c1ccc(-c2ccc(Oc3nc(-c4ccccc4)cc(-c4ccccc4)n3)cc2)cc1` [Z1037335802]: the MIC in the assay with M. tuberculosis H37Rv amounted to 100 µM (≈ 40 µg/mL). As to `Clc1ccc(-c2cc(Nc3ccccc3Cl)nc3ccccc23)cc1` [Z1143441182], in the assay with M. tuberculosis H37Rv, the MIC was determined as 12 µM (≈ 4.38 µg/mL). Also, at KasA [3], the inhibition at 25 µM is 13.9 ± 12%. Besides, the remaining activity at 25 µM on MabA [4] stood at 105 ± 19.7%. For `c1ccc(C(c2ccccc2)N2CCN(c3nc4ccccc4c4nc(-c5cccnc5)nn34)CC2)cc1` [Z1157836627], the MIC in the assay with M. tuberculosis H37Rv turned out to be 100 µM (≈ 49.8 µg/mL). For `Clc1ccc(-c2nc(NN=Cc3ccc4ccccc4n3)nc3ccccc23)cc1` [Z1187818773], in the assay with M. tuberculosis H37Rv, the MIC came to 100 µM (≈ 41 µg/mL). On to `O=C(c1ccccc1)c1ccc(Cl)cc1Nc1cc(-c2ccccc2)c2ccc(Cl)cc2n1` [Z1386458621], for which the MIC in the assay on M. tuberculosis H37Rv was 100 µM (≈ 46.9 µg/mL). On to `Cc1ccc2c(-c3ccccc3)nc(NN=Cc3c[nH]c4ccccc34)nc2c1` [Z1409330734], for which the MIC in the assay on M. tuberculosis H37Rv came out at 50 µM (≈ 18.9 µg/mL). The same measure, in the same setting: next, `Clc1ccc2nc(N3N=C(c4ccccc4)CC3c3cccc(Br)c3)nc(-c3ccccc3)c2c1` (centres unmarked) [Z1558470019]: 100 µM (≈ 54 µg/mL); `Cc1ccc(-c2nc(N3N=C(c4cccc(Br)c4)CC3c3cccc(Br)c3)nc3ccccc23)cc1` (centres unmarked) [Z1558581154]: 100 µM (≈ 59.8 µg/mL). With `Cc1ccc(-c2cc(-c3c(O)nc4ccccc4c3-c3ccccc3)nc3ccccc23)cc1` [Z1702969146], in the assay on M. tuberculosis H37Rv, the MIC was 12 µM (≈ 5.26 µg/mL). Moreover, the inhibition at 25 µM at KasA [3] stood at 27.1 ± 8.1%. On MabA [4], the remaining activity at 25 µM worked out at 101 ± 17.6%.

As to `Cc1cccc(C2CC(c3ccc(N(C)C)cc3)=NN2c2nc(-c3ccc(Cl)cc3)c3ccccc3n2)c1` (centres unmarked) [Z1898794184], the MIC with M. tuberculosis H37Rv came out at 100 µM (≈ 51.8 µg/mL). As to `Oc1nc2cc(Cl)ccc2c(-c2ccccc2)c1-c1cc(-c2ccccc2)c2ccc(Cl)cc2n1` [Z2010009645], the MIC with M. tuberculosis H37Rv is 100 µM (≈ 49.3 µg/mL). As to `Clc1ccc2c(-c3ccccc3)cc(-c3c(Cl)nc4ccc(Br)cc4c3-c3ccccc3)nc2c1` [Z2039275273], the MIC in the assay on M. tuberculosis H37Rv stood at 100 µM (≈ 55.6 µg/mL). Consider `O=C1c2ccccc2C(=O)N1C(Cc1ccccc1)c1nc2c3ccccc3ncn2n1` (centres unmarked) [Z2176371175], for which, in the assay with M. tuberculosis H37Rv, the MIC amounted to 100 µM (≈ 41.9 µg/mL). With `O=C(c1ccccc1)c1ccc(Cl)cc1Nc1cc(-c2ccccc2)c2cc(Cl)ccc2n1` [Z2196034878], in the assay on M. tuberculosis H37Rv, the MIC amounted to 100 µM (≈ 46.9 µg/mL). Turning to `Cc1ccc2c(-c3ccccc3)nc(NN=Cc3cnc4ccccc4n3)nc2c1` [Z2488926519], the MIC in the assay on M. tuberculosis H37Rv stood at 100 µM (≈ 39 µg/mL).
